# Laboratory results from patent US12622910B2, “Inhibitors of Bruton's tyrosine kinase and methods of their use” (Janssen Pharmaceutica NV, priority 2021, dated 2026).
# How the values were obtained:
# [1] = Blood-to-plasma concentration ratio; assay type: in vitro ADME; details: human, fresh blood
# [2] = target: T1, BTK (Homo sapiens, UniProt Q06187); test: ActivX KiNativ native kinase profiling, Ramos cell lysates; assay type: binding; parameters: endogenous in cells
# Procedure: RESULTS AND DISCUSSION—Selectivity—The compound of Formula (III) was evaluated in three selectivity panels to assess the potential for off-target pharmacology (Table 8). […] The kinase off-target profile of The compound of Formula (III) was assessed in a full human wild-type panel using radiometric kinase activity assays (KinaseProfiler™ and IC50Profiler™; Eurofins Scientific) (Table 9; FIG. 23). The compound of Formula (III) inhibited 4/278 kinases >50% at 1 micromolar, identifying BTK and the three other kinases having analogous Cys residues with the potential for covalent inhibition (BMX, TEC, BLK). […]. The cellular kinase selectivity of The compound of Formula (III) was established in native Ramos B cell kinome assays (KiNativ™; ActivX) confirmed BTK as the primary target with inhibition of BLK and TEC inhibition detected (Table 10).
# [3] = Population PK model and simulations; parameters: species or system human
# Source text: PK/PD modeling and simulation—In the PK/PD model, a two-compartment population PK (popPK) model with a first-order absorption and elimination was used to fit the PK data. The model was parameterized in terms of apparent clearance (CL/F), apparent volume of distribution of the central compartment (V2/F), apparent inter-compartmental clearance (Q/F), apparent volume of distribution of the peripheral compartment (V3/F), and first-order absorption rate constant (Ka). Inter-individual variability was included on CL/F, V2/F, Q/F, and Ka. Following the development of the popPK model, the PK/PD model was subsequently developed based on individual estimates from the popPK model.
# Once MAD data were available, the semi-mechanistic PK/PD model was updated with the acquired data from SAD and MAD cohorts. All covariate effects in the popPK analysis were evaluated on clearance from the central compartment (CL/F) only, except for body weight, food effect, and drug formulation. Body weight was included in the structural model (as a covariate on the CL/F, V2/F, Q/F). […] Food effect and drug formulation were evaluated on Ka. The covariates model selection was conducted using a full-model approach with backward elimination (nominal p<0.001, i.e., a change in the objective function value of 10.83 with 1 degree of freedom). A covariate model was initially developed using all statistically significant covariates of interest, and was then reduced by removing covariates with effect sizes less than 10% of the typical values of the respective PK parameters. This reduced model was regarded as the final mode which was subsequently used for PD model. Model selection was determined by graphical assessment, statistically significant difference in the objective function value between competing models. The performance of the final model was evaluated using a prediction-corrected visual predictive check (pcVPC; n=1000 replicates).
# The semi-mechanistic PK/PD model was performed using NONMEM (version 7.3.0, ICON Development Solutions LLC, Ellicott City, MD, United States). The use of NONMEM, including model qualification procedures, were facilitated within the environment of Perl-speaks-NONMEM (version 4.6.0, a compatible front-end program for NONMEM. Data management, exploratory analyses, diagnostic graphics, and post processing of the data and NONMEM outputs were performed using R (version 3.4.1, The R Project for Statistical Computing, statistical software). All analyses were performed in a validated environment, High Performance Pharmacometrics Platform System (Rudraya Sonic version 4 or higher), based on Good Automated Manufacturing Practice and in accordance with 21 CFR Part 11 and Good Clinical Practice regulations.
# [4] = target: T1, BTK; test: Phase 1 study, BTK occupancy in PBMCs; assay type: in vivo; parameters: measuring free BTK levels in peripheral blood mononuclear cells (PBMCs) and calculating % BTKO; endogenous in cells; host or cells: human PBMCs, lysed after isolation from whole blood; details: for BTKO at 24 hr, ss, median observed / Calculated Average BTKO, observed / Max BTKO at ss, median observed: Day 10 oral solution; for mean BTKO: all MAD dose groups
# Procedure: Pharmacodynamics (BTKO)—In Part 1, venous blood samples (8 mL) were collected predose and at 1, 2, 4, 8, 12, 24, 48, and 72 hours post-dose for measuring free BTK levels in peripheral blood mononuclear cells (PBMCs) and calculating % BTKO. In Part 2, blood samples were taken on day 1 predose and at 2, 4, and 8 hours after dosing; days 2-10 predose and 4 hours post-dose; and at 24, 48, and 72 hours after the last dose and at the follow-up visit.
# After PBMCs were isolated from whole blood, they were lysed and prepared for the measurement of BTK occupancy using a custom streptavidin-coated Meso Scale Discovery (MSD) immunoassay. Percent occupancy was calculated as 100%×([Baseline free BTK−Free BTK with treatment]/Baseline Free BTK).
# [5] = model (B), all SAD and MAD data
# T1 sequence (Q06187 whole entry): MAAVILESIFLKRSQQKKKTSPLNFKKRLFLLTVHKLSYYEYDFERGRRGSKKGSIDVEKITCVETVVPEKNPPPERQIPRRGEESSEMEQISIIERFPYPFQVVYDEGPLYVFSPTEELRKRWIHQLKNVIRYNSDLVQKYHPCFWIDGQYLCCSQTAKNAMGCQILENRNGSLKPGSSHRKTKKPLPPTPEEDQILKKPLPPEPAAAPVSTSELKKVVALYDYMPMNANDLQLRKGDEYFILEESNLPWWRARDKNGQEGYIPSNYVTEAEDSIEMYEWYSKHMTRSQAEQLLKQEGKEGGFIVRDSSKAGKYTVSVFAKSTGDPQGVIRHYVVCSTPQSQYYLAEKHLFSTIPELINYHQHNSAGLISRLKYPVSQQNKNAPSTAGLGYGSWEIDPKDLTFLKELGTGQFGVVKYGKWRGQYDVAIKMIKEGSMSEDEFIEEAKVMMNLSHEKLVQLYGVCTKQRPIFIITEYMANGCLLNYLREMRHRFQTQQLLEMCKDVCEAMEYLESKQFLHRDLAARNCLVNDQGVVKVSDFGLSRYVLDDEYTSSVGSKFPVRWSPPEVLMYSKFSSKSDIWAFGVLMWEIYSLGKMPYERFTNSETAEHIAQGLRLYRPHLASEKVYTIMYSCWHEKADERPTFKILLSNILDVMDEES
compound,measurement,setting,value
"C=CC(=O)N[C@H]1CCC[C@H]1NC(=O)c1sc2nccc3c2c1NC(=O)N3c1cnc(CC(C)C)cc1C (atropisomer, axis not shown) [compound of Formula (III), N-((1R,2S)-2-Acrylamidocyclopentyl)-5-(S)-(6-isobutyl-4-methylpyridin-3-yl)-4-oxo-4,5-dihydro-3H-1-thia-3,5,8-triazaacenaphthylene-2-carboxamide]",blood plasma ratio at 1 μM,[1],0.67
same,inhibition at 1 µM,[2]; Lys labelling,90.3%
same,inhibition at 1 µM,[2]; activation loop labeling,94.4%
same,"CL/F, popPK estimate","[3]; model (A), first 5 SAD cohorts",49.4 L/h
same,"Ka, popPK estimate","[3]; model (A), first 5 SAD cohorts",1.94 h⁻¹
same,"Q/F, popPK estimate","[3]; model (A), first 5 SAD cohorts",1.57 L/h
same,"V1/F, popPK estimate","[3]; model (A), first 5 SAD cohorts",108.9 L
same,"CL/F, popPK estimate",[3]; [5],62.4 L/h
same,FORM = Oral Capsule on Ka (covariate effect),[3]; [5],0.325
same,"Ka, popPK estimate",[3]; [5],1.97 h⁻¹
same,"NURT = Fed, standard meal on Ka (covariate effect)",[3]; [5],0.339
same,"Q/F, popPK estimate",[3]; [5],2.85 L/h
same,"V1/F, popPK estimate",[3]; [5],129.6 L
same,"BTKO at 24 hr, ss, median observed",[4]; 36 mg QD,69.5%
same,"Calculated Average BTKO, observed",[4]; 36 mg QD,74.2%
same,"Max BTKO at ss, median observed",[4]; 36 mg QD,78.9%
same,mean % BTKO,"[4]; 36 mg QD, day 1, 4 hours",34%
same,mean % BTKO,"[4]; 36 mg QD, day 10, 4 hours",80%
same,"BTKO at 24 hr, ss, median observed",[4]; 100 mg QD,84.1%
same,"Calculated Average BTKO, observed",[4]; 100 mg QD,89.1%
same,"Max BTKO at ss, median observed",[4]; 100 mg QD,94.1%
same,mean % BTKO,"[4]; 100 mg QD, day 1, 4 hours",61%
same,mean % BTKO,"[4]; 100 mg QD, day 10, 4 hours",91%
same,"BTKO at 24 hr, ss, median observed",[4]; 200 mg QD,78.9%
same,"Calculated Average BTKO, observed",[4]; 200 mg QD,88.8%
same,"Max BTKO at ss, median observed",[4]; 200 mg QD,98.8%
same,mean % BTKO,"[4]; 200 mg QD, day 1, 4 hours",94%
same,mean % BTKO,"[4]; 200 mg QD, day 10, 4 hours",98%
same,"mean % BTKO lower, capsule vs solution",[4]; 4 hours post-dose,≈ 37%
same,"mean % BTKO lower, capsule vs solution",[4]; 24 hours post-dose,≈ 30%
same,mean % BTKO at follow-up visit (7-14 days),"[4]; Part 1, all treatment groups",≤ 42%
same,mean % BTKO at follow-up visit (7 to 14 days),"[4]; Part 2, all treatment groups",< 40%
same,mean BTKO,[4]; 24 hours after Day 10 dose,above 65%
same,mean BTKO,[4]; 72 hours after Day 10 dose,> 30%
same,mean % BTKO,"[4]; single 36 mg, females, 4 hours",55%
same,mean % BTKO,"[4]; single 36 mg, males, 4 hours",39%
same,peak mean % BTKO,"[4]; single 100 mg solution, fed, 8 hours post-dose",73%
same,mean % BTKO,"[4]; single 100 mg solution, male fasted, 4 hours post-dose",86%
same,mean % BTKO,"[4]; single 100 mg, females, 4 hours",81%
same,mean % BTKO,"[4]; single 105 mg capsule, 4 hours",54%
same,mean % BTKO,"[4]; single 105 mg capsule, 24 hours",53%
same,maximum % BTKO (mean),[4]; single and multiple doses ≥100 mg,≥ 90%
same,duration of BTKO,[4]; single doses ≥100 mg,up to 72 hours
same,% BTKO,"[4]; single doses ≥100 mg, male fasted, 4 hours",~100%
